Data published in article PMC11266321 (EJNMMI Radiopharmacy and Chemistry, 2024).

How the values were obtained:
[1] = system: β-Adrenergic (non-selective); test: Radioligand binding inhibition, β-Adrenergic; details: 10 µM; radioligand [^3H]DHA; mean of duplicate
Protocol: (§1) Interaction of MMP with 28 binding sites was examined, including major classes of neurotransmitter receptor, uptake system, and ion channels (Sekisui Medical, Naka, Japan). MMP was tested in all assays at 10 µM. […] 10.2.3 (GraphPad Software, San Diego, CA). Each determination was made in duplicate.
(§2) Test substance concentration : 10 µM, positive substance concentration : 10 µM
(§3) Data are expressed as the mean values of duplicate samples.
(§4) The % inhibition was calculated from “100 – binding ratio”.
(§5) Binding ratio: [(B - N) / (B0 - N)] × 100 (%)
(§6) B: Bound radioactivity in the presence of test substance and positive substance (individual value)
(§7) B0: Total bound radioactivity in the absence of test substance and positive substance (mean value)
(§8) N: Non-specific bound radioactivity (mean value)

[2] = system: Glutamate (AMPA); test: Radioligand binding inhibition, Glutamate AMPA; details: 10 µM; radioligand [^3H]AMPA; mean of duplicate
Protocol: as §1, §2, §3, §4, §5, §6, §7, §8

[3] = target: T1, Histamine H2 (Homo sapiens, UniProt P25021); test: Radioligand binding inhibition, Histamine H2; details: 10 µM; radioligand [^125I]Iodoaminopotentidine; mean of duplicate
T1 construct: Sekisui Medical (contract laboratory)
Protocol: as §1, §2, §3, §4, §5, §6, §7, §8

[4] = system: GABA A (BZ central); test: Radioligand binding inhibition, GABA A BZ central; details: 10 µM; radioligand [^3H]Flunitrazepam; mean of duplicate
Protocol: as §1, §2, §3, §4, §5, §6, §7, §8

[5] = system: Glutamate (Ketamine); test: Radioligand binding inhibition, Glutamate (Ketamine); details: 10 µM; radioligand [^3H]Kainic acid; mean of duplicate
[6] = target: T2, Serotonin 5HT2A (Homo sapiens, UniProt P28223); test: Radioligand binding inhibition, Serotonin 5HT2A; details: 10 µM; radioligand [^3H]Ketanserin; mean of duplicate
T2 construct: Sekisui Medical (contract laboratory that ran the panel)
Protocol: as §1, §2, §3, §4, §5, §6, §7, §8

[7] = system: Glutamate (non-selective); test: Radioligand binding inhibition, Glutamate non-selective; details: 10 µM; radioligand [^3H]Glutamic acid; mean of duplicate
Protocol: as §1, §2, §3, §4, §5, §6, §7, §8

[8] = system: Glutamate (NMDA agonist site); test: Radioligand binding inhibition, Glutamate NMDA agonist site; details: 10 µM; radioligand [^3H]CGP-39653; mean of duplicate
Protocol: as §1, §2, §3, §4, §5, §6, §7, §8

[9] = target: T3, Glutamate (NMDA glycine site) (Homo sapiens, UniProt Q05586); test: Radioligand binding inhibition, Glutamate NMDA glycine site; details: 10 µM; radioligand [^3H]MDL105,519; mean of duplicate
T3 construct: Sekisui Medical (contract laboratory)
Protocol: as §1, §2, §3, §4, §5, §6, §7, §8

[10] = system: GABA A (agonist site); test: Radioligand binding inhibition, GABA A agonist site; details: 10 µM; radioligand [^3H]Muscimol; mean of duplicate
Protocol: as §1, §2, §3, §4, §5, §6, §7, §8

[11] = system: Opiate (non-selective); test: Radioligand binding inhibition, Opiate; details: 10 µM; radioligand [^3H]Naloxone; mean of duplicate
Protocol: as §1, §2, §3, §4, §5, §6, §7, §8

[12] = target: T4, Serotonin 5HT1A (Homo sapiens, UniProt P08908); test: Radioligand binding inhibition, Serotonin 5HT1A; details: 10 µM; radioligand [^3H]8-OH DPAT; mean of duplicate
T4 construct: Sekisui Medical (contract laboratory)
Protocol: as §1, §2, §3, §4, §5, §6, §7, §8

[13] = system: Glycine (strychnine site); type: binding; details: 10 µM; radioligand [^3H]Strychine; mean of duplicate
[14] = target: T5, Serotonin 5HT3 (human) (Homo sapiens, UniProt P46098); test: Radioligand binding inhibition, Serotonin 5HT3; details: 10 µM; radioligand [^3H]GR65630; mean of duplicate
T5 construct: Sekisui Medical (contract laboratory that ran the panel)
Protocol: as §1, §2, §3, §4, §5, §6, §7, §8

[15] = system: α2-Adrenergic (non-selective); test: Radioligand binding inhibition, α2-Adrenergic; details: 10 µM; radioligand [^3H]Rauwolscine; mean of duplicate
Protocol: as §1, §2, §3, §4, §5, §6, §7, §8

[16] = target: T6, Dopamine D2 (Homo sapiens, UniProt P14416); test: Radioligand binding inhibition, Dopamine D2; details: 10 µM; radioligand [^3H]Spiperone; mean of duplicate
T6 construct: Sekisui Medical (contract laboratory)
Protocol: as §1, §2, §3, §4, §5, §6, §7, §8

[17] = system: Glutamate (NMDA phencyclidine site); test: Radioligand binding inhibition, Glutamate NMDA phencyclidine site; details: 10 µM; radioligand [^3H]MK-801; mean of duplicate
Protocol: as §1, §2, §3, §4, §5, §6, §7, §8

[18] = system: Nicotinic (neuronal); type: binding; details: 10 µM; radioligand [^3H]Cytisine; mean of duplicate

T5 sequence (P46098 24-478): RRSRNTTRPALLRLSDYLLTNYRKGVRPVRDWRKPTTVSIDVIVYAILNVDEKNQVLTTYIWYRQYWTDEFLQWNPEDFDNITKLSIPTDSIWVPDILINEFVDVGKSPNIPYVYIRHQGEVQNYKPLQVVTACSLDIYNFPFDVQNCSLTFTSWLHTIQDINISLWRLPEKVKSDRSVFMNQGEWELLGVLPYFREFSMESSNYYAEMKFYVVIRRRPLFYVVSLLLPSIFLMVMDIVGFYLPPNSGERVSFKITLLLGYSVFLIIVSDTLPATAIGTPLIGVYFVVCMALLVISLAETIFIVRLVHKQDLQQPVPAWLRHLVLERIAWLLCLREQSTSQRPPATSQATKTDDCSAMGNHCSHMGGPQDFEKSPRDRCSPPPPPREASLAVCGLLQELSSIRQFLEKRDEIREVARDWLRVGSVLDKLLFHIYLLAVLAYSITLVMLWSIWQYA
T4 sequence (P08908 whole entry): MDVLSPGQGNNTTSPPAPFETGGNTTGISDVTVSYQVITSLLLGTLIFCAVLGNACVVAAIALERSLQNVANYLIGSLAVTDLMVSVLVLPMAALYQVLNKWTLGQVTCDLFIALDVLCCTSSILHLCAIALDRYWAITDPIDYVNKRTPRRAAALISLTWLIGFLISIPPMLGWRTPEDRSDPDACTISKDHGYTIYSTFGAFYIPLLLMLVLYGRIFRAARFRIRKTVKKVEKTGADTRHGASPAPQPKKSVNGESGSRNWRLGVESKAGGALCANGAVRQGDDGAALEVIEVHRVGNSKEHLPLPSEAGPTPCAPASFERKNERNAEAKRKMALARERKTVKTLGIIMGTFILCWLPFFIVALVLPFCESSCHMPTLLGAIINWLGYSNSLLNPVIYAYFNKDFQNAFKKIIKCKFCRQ
T6 sequence (P14416 whole entry): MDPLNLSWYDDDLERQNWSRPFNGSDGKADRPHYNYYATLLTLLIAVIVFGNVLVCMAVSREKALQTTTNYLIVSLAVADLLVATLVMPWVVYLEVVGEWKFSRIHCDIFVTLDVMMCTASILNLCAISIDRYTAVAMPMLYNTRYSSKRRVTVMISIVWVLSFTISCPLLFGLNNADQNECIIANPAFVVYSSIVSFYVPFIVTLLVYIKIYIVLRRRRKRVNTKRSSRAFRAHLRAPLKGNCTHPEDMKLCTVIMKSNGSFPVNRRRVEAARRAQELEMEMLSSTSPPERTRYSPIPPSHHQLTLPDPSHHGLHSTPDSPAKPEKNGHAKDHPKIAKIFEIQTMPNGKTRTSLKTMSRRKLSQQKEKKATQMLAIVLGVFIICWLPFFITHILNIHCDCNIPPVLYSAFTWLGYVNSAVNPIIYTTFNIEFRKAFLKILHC
T1 sequence (P25021 whole entry): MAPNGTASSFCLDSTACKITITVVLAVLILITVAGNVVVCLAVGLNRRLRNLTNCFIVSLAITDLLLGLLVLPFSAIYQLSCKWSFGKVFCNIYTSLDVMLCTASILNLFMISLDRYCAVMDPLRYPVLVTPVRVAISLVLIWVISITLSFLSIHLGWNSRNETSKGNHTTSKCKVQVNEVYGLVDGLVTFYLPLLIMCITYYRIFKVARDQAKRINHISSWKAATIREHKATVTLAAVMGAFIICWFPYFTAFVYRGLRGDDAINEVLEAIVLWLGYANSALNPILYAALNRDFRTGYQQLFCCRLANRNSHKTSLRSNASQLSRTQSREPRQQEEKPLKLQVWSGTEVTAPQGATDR
T2 sequence (P28223 whole entry): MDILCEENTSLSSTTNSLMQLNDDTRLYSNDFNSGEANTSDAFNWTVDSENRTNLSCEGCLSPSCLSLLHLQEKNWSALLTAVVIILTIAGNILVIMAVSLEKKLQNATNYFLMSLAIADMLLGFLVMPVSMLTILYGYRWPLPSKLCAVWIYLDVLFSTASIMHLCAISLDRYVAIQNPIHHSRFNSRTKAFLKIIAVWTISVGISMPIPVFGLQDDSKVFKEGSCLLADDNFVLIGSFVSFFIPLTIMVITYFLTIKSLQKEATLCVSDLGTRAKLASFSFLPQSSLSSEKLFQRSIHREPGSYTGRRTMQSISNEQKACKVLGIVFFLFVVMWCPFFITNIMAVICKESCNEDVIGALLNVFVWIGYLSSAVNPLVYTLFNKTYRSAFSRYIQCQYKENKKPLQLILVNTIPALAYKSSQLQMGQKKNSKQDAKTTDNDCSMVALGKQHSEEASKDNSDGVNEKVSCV

## CC(C)NCC(O)COc1cccc2ccccc12 (racemic) [(±)-Propranolol, reference compound]
[1]
  Inhibition ratio (%): 97.25%

## Cc1o[nH]c(=O)c1C[C@H](N)C(=O)O [(S)-AMPA, reference compound]
[2]
  Inhibition ratio (%): 98.65%

## CN/C(=N/CCSCc1nc[nH]c1C)NC#N [Cimetidine, reference compound]
[3]
  Inhibition ratio (%): 97.63%

## CN1C(=O)CN=C(c2ccccc2)c2cc(Cl)ccc21 [Diazepam, reference compound]
[4]
  Inhibition ratio (%): 100.00%

## C=C(C)[C@H]1CN[C@H](C(=O)O)[C@H]1CC(=O)O [Kainic acid, reference compound]
[5]
  Inhibition ratio (%): 97.79%

## O=C(c1ccc(F)cc1)C1CCN(CCn2c(=O)[nH]c3ccccc3c2=O)CC1 [Ketanserin, reference compound]
[6]
  Inhibition ratio (%): 98.94%

## N[C@@H](CCC(=O)O)C(=O)O [L-Glutamic acid, reference compound]
[7]
  Inhibition ratio (%): 93.56%
[8]
  Inhibition ratio (%): 100.00%

## O=C(O)/C(=C/c1c(C(=O)O)[nH]c2cc(Cl)cc(Cl)c12)c1ccccc1 [MDL105,519, reference compound]
[9]
  Inhibition ratio (%): 97.35%

## NCc1cc(=O)[nH]o1 [Muscimol, reference compound]
[10]
  Inhibition ratio (%): 96.50%

## C=CCN1CC[C@]23c4c5ccc(O)c4O[C@H]2C(=O)CC[C@@]3(O)[C@H]1C5 [Naloxone, reference compound]
[11]
  Inhibition ratio (%): 96.53%

## NCCc1c[nH]c2ccc(O)cc12 [Serotonin, reference compound]
[12]
  Inhibition ratio (%): 95.99%

## O=C1C[C@@H]2OCC=C3CN4CC[C@]56c7ccccc7N1[C@H]5[C@H]2[C@H]3C[C@H]46 [Strychnine, reference compound]
[13]
  Inhibition ratio (%): 100.00%

## CN1[C@@H]2CC[C@H]1C[C@@H](OC(=O)c1c[nH]c3ccccc13)C2 [Tropisetron, reference compound]
[14]
  Inhibition ratio (%): 99.78%

## COC(=O)[C@@H]1[C@H]2C[C@H]3c4[nH]c5ccccc5c4CCN3C[C@@H]2CC[C@@H]1O [Yohimbine, reference compound]
[15]
  Inhibition ratio (%): 89.82%

## (+)-Butaclamol [reference compound]
[16]
  Inhibition ratio (%): 95.06%

## (+)-MK-801 [reference compound]
[17]
  Inhibition ratio (%): 100.00%

## (±)-Nicotine [reference compound]
[18]
  Inhibition ratio (%): 95.62%
